Test results as given in US8030354B2, “Substituted biphenyl GPR40 modulators” (Amgen Inc., priority 2007, dated 2011).

Biological target: GPR40 (Homo sapiens, UniProt O14842)
Test: Cell-based aequorin assay (CHO cells stably expressing GPR40 and aequorin)
Design: expressed in transfected cells; host or cells: CHO cells stably transfected with GPR40 and aequorin
Conditions: activation of human GPR40, CHO cells, 0.01% HSA
Protocol: Briefly, the Aequorin assays were performed on doubly stable CHO cells expressing GPR40 and Aequorin DNA. […] The luminescence was recorded over a period of 20 seconds with a Microlumat luminometer (Berthold). […] The inositol phosphate assay was performed on an A9 cell line stably transfected with GPR40 (A9_GPR40). The cells were incubated with different concentrations of compounds and [^3H] inositol accumulation was measured after 1 hour.
Cell-based aequorin assays were employed to characterize the modulatory activity of compounds on the GPR40 signaling pathway. In an exemplary assay, CHO cells were stably transfected with both GPR40 and Aequorin (Euroscreen). Cells were detached from the tissue culture dish with 2 mL of trypsin (0.25%(w/v)). Trypsinization was halted with 28 mL of Hanks Buffered Salt Solution containing 20 mM Hepes (H/HBSS) and 0.01% fatty acid-free human serum albumin (HSA). Coelantrazine is added to 1 ug/mL, and the cells were incubated for 2 hours at room temperature. Compounds were dissolved in DMSO for preparation of 10 mM stock solutions. Compounds were diluted in H/HBSS containing 0.01% HSA. Serial dilutions of the test compounds were prepared to determine dose response.
Aequorin luminescence measurements were made using an EG&G Berthold 96-well luminometer, and the response was measured over a 20 second interval after cells and compounds were mixed. The maximum relative light units was plotted to determine dose response. The EC50 (effective concentration to reach 50% maximal response) was determined from the dose response plot.

Sequence of GPR40 (O14842 whole entry): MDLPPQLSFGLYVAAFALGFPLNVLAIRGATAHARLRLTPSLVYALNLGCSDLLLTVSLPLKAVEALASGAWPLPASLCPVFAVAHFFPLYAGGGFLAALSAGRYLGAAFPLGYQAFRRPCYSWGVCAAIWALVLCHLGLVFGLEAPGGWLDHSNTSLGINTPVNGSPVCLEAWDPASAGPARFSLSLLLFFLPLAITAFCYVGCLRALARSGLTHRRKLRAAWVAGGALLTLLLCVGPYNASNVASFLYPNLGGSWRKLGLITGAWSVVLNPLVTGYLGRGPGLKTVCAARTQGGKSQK

Row | Structure (SMILES) | EC50
1 | COCC1(c2cc(COc3cccc(C(CC(=O)O)C4CC4)c3F)ccc2-c2cc(OC)ncc2F)CCCC1 (single isomer, unassigned) [Example 83.30, (3S)-3-(3-(4-(5-Fluoro-2-methoxypyridin-4-yl)-3-(1-(methoxymethyl)cyclopentyl)benzyloxy)-2-fluorophenyl)-3-cyclopropylpropanoic acid or (3R)-3-(3-(4-(5-fluoro-2-methoxypyridin-4-yl)-3-(1-(methoxymethyl)cyclopentyl)benzyloxy)-2-fluorophenyl)-3-cyclopropylpropanoic acid] | 1 to 10 µM
2 | COc1ccc(F)c(-c2ccc(COc3cccc([C@H](CC(=O)O)C4CC4)c3F)cc2[C@H]2CCCC2(C)C)c1 (single isomer, unassigned) [Example 99.3] | 1 to 10 µM
3 | CCCCCOc1cc(COc2cccc(C(CCC)CC(=O)O)c2)ccc1-c1cc(OC)ccc1F (single isomer, unassigned) [Example 67.1, (3R)-3-(3-(((2′-Fluoro-5′-(methyloxy)-2-(pentyloxy)-1,1′-biphenyl-4-yl)methyl)oxy)phenyl)hexanoic acid or (3S)-3-(3-(((2∝-fluoro-5′-(methyloxy)-2-(pentyloxy)-1,1′-biphenyl-4-yl)methyl)oxy)phenyl)hexanoic acid] | 0.1 to 1 µM
4 | CCCCOc1cc(COc2cccc([C@H](C)CC(=O)O)c2)ccc1-c1ccc(OC)cc1 (single isomer, unassigned) [Example 21, (3R)-3-(3-(((2-(Butyloxy)-4′-(methyloxy)-1,1′-biphenyl-4-yl)methyl)oxy)phenyl)butanoic acid or (3S)-3-(3-(((2-(butyloxy)-4′-(methyloxy)-1,1′-biphenyl-4-yl)methyl)oxy)phenyl)butanoic acid] | 1 to 10 µM
5 | CCCC(CC(=O)O)c1cccc(OCc2ccc(-c3cc(OC)ccc3F)c(C(OC)C(C)(C)CC)c2)c1 (single isomer, unassigned) [Example 67.26] | 1 to 10 µM
6 | COc1ccc(F)c(-c2ccc(COc3cccc(C(CC(=O)O)CC4CC4)c3)cc2CN2CCCC2)c1 (single isomer, unassigned) [Example 69.46, (3R)-4-Cyclopropyl-3-(3-(((2′-fluoro-5′-(methyloxy)-2-(1-pyrrolidinylmethyl)-1,1′-biphenyl-4-yl)methyl)oxy)phenyl)butanoic acid or (3S)-4-cyclopropyl-3-(3-(((2′-fluoro-5′-(methyloxy)-2-(1-pyrrolidinylmethyl)-1,1′-biphenyl-4-yl)methyl)oxy)phenyl)butanoic acid] | 1 to 10 µM
7 | COc1ccc(F)c(-c2ccc(COc3cccc(C(CC(=O)O)CC4CC4)c3)cc2C2OCCCC2(C)C)c1 (single isomer, unassigned) [Example 69.27, (R)-4-Cyclopropyl-3-{3-[2-(3,3-dimethyl-tetrahydro-pyran-2-yl)-2′-fluoro-5′-methoxy-biphenyl-4-ylmethoxy]-phenyl}-butyric acid or (S)-4-cyclopropyl-3-{3-[2-(3,3-dimethyl-tetrahydro-pyran-2-yl)-2′-fluoro-5′-methoxy-biphenyl-4-ylmethoxy]-phenyl}-butyric acid] | 0.1 to 1 µM
8 | COc1ccc(F)c(-c2ccc(COc3cccc([C@@H](CC(=O)O)C4CC4)c3)cc2[C@H]2OCCCC2(C)C)c1 (single isomer, unassigned) [Example 66.55] | 1 to 10 µM
9 | CCCCOc1ccc(OC)cc1-c1ccc(COc2cccc(CCC(=O)O)c2)cc1C [Example 4, 3-(3-(((2′-(Butyloxy)-2-methyl-5′-(methyloxy)-1,1′-biphenyl-4-yl)methyl)oxy)phenyl)propanoic acid] | 1 to 10 µM
10 | C=C[C@H](CC(=O)O)c1cccc(OCc2ccc(-c3cc(OC)ccc3F)c(OCCCC)c2)c1 (single isomer, unassigned) [Example 16, (3S)-3-(3-(((2-(Butyloxy)-2′-fluoro-5′-(methyloxy)-1,1′-biphenyl-4-yl)methyl)oxy)phenyl)-4-pentenoic acid or (3R)-3-(3-(((2-(butyloxy)-2′-fluoro-5′-(methyloxy)-1,1′-biphenyl-4-yl)methyl)oxy)phenyl)-4-pentenoic acid] | 1 to 10 µM
11 | CCOc1cccc(-c2ccc(COc3cccc(C(C)CC(=O)O)c3)cc2C(C)(C)C)c1 (single isomer, unassigned) [Example 64.24, (3R)-3-(3-(((2-(1,1-Dimethylethyl)-3′-(ethyloxy)-1,1′-biphenyl-4-yl)methyl)oxy)phenyl)butanoic acid or (3S)-3-(3-(((2-(1,1-dimethylethyl)-3′-(ethyloxy)-1,1′-biphenyl-4-yl)methyl)oxy)phenyl)butanoic acid] | 1 to 10 µM
12 | CCC(CC(=O)O)c1cccc(OCc2ccc(-c3cc(OC)ccc3F)c(C3CCCC3(C)C)c2)c1F (single isomer, unassigned) [Example 100.1] | 1 to 10 µM
13 | CSc1cccc(-c2ccc(COc3cccc(C(C)CC(=O)O)c3)cc2C(C)(C)C)c1 (single isomer, unassigned) [Example 64.23, (3R)-3-(3-(((2-(1,1-Dimethylethyl)-3′-(methylsulfanyl)-1,1′-biphenyl-4-yl)methyl)oxy)phenyl)butanoic acid or (3S)-3-(3-(((2-(1,1-dimethylethyl)-3′-(methylsulfanyl)-1,1′-biphenyl-4-yl)methyl)oxy)phenyl)butanoic acid] | 1 to 10 µM
14 | COC[C@H](CC(=O)O)c1cccc(OCc2ccc(-c3cc(OC)ccc3F)c(C3=CCCC3(C)C)c2)c1 (single isomer, unassigned) [Example 74, (3R)-3-(3-(((2-(5,5-Dimethyl-1-cyclopenten-1-yl)-2′-fluoro-5′-(methyloxy)-1,1′-biphenyl-4-yl)methyl)oxy)phenyl)-4-(methyloxy)butanoic acid or (3S)-3-(3-(((2-(5,5-dimethyl-1-cyclopenten-1-yl)-2′-fluoro-5′-(methyloxy)-1,1′-biphenyl-4-yl)methyl)oxy)phenyl)-4-(methyloxy)butanoic acid] | 1 to 10 µM
15 | CCCC(CC(=O)O)c1cccc(OCc2ccc(-c3cccc(OC)c3)c(C3CCCCCC3)c2)c1 (single isomer, unassigned) [Example 80.1, (3R)-3-(3-(((2-Cycloheptyl-3′-(methyloxy)-1,1′-biphenyl-4-yl)methyl)oxy)phenyl)hexanoic acid or (3S)-3-(3-(((2-cycloheptyl-3′-(methyloxy)-1,1′-biphenyl-4-yl)methyl)oxy)phenyl)hexanoic acid] | 0.1 to 1 µM
16 | COc1ccc(F)c(-c2ccc(COc3cccc([C@@H](CC(=O)O)C4CC4)c3)cc2CN2CCCCC2)c1 (single isomer, unassigned) [Example 66.64, (3S)-3-Cyclopropyl-3-(3-(((2′-fluoro-5′-(methyloxy)-2-(1-piperidinylmethyl)-1,1′-biphenyl-4-yl)methyl)oxy)phenyl)propanoic acid or (3R)-3-cyclopropyl-3-(3-(((2′-fluoro-5′-(methyloxy)-2-(1-piperidinylmethyl)-1,1′-biphenyl-4-yl)methyl)oxy)phenyl)propanoic acid] | 1 to 10 µM
17 | COc1ccc(F)c(-c2ccc(COc3cccc(C(CC(=O)O)CC4CC4)c3)cc2C(=O)C(C)(C)C)c1 (single isomer, unassigned) [Example 69.20, (3R)-4-Cyclopropyl-3-(3-(((2-(2,2-dimethylpropanoyl)-2′-fluoro-5′-(methyloxy)-1,1′-biphenyl-4-yl)methyl)oxy)phenyl)butanoic acid or (3S)-4-cyclopropyl-3-(3-(((2-(2,2-dimethylpropanoyl)-2′-fluoro-5′-(methyloxy)-1,1′-biphenyl-4-yl)methyl)oxy)phenyl)butanoic acid] | 1 to 10 µM
18 | COc1ccc(F)c(-c2ccc(COc3cccc(C(CCC(F)(F)F)CC(=O)O)c3)cc2C(C)(C)C)c1 (single isomer, unassigned) [Example 68.1, (3R)-3-(3-(((2-(1,1-Dimethylethyl)-2′-fluoro-5′-(methyloxy)-1,1′-biphenyl-4-yl)methyl)oxy)phenyl)-6,6,6-trifluorohexanoic acid or (3S)-3-(3-(((2-(1,1-dimethylethyl)-2′-fluoro-5′-(methyloxy)-1,1′-biphenyl-4-yl)methyl)oxy)phenyl)-6,6,6-trifluorohexanoic acid] | 0.1 to 1 µM
19 | C=CC(C)(C)C(O)c1cc(COc2cccc(C(CC(=O)O)C3CC3)c2)ccc1-c1cc(OC)ccc1F (single isomer, unassigned) [Example 66.61] | 0.1 to 1 µM
20 | CC1(c2cccc(-c3ccc(COc4cccc(C(CC(=O)O)C5CC5)c4)cc3C3CCCC3(C)C)c2)OCCO1 (single isomer, unassigned) [Example 66.72, (S)-3-(3-((S)-3-((S)-2,2-Dimethylcyclopentyl)-4-(3-(2-methyl-1,3-dioxolan-2-yl)phenyl)benzyloxy)phenyl)-3-cyclopropylpropanoic acid or stereoisomer thereof] | 1 to 10 µM
21 | COc1ccc(F)c(-c2ccc(COc3cccc(C(CC(=O)O)CC4CC4)c3)cc2C2CCCC2(C)C)c1 (single isomer, unassigned) [Example 69.7] | 0.1 to 1 µM
22 | CC[C@H](CC(=O)O)c1cccc(OCc2ccc(-c3cccc(OC)c3)c([C@@H]3CCCC3(C)C)c2)c1 (single isomer, unassigned) [Example 78.5] | 0.1 to 1 µM
